# Results taken from patent US6500842B1, “8-hydroxy-7-substituted quinolines as anti-viral agents” (Pharmacia & Upjohn Company, priority 1996, dated 2002).
# Values joined by “and” are separate entries in the source; they are usually repeats but may differ in a detail not shown here. Identical values can stand only once.
# Biological target: T1, HCMV polymerase (Human cytomegalovirus, UniProt P08546)
# T1 construct: made in house; host or cells: recombinant baculovirus-infected SF-9 cells
# Assay: HCMV polymerase assay (scintillation proximity assay)
# Type: biochemical
# Settings: Conc 1.00e−004 M; Table 2
# Procedure: The HCMV polymerase assay is performed using a scintillation proximity assay (SPA) as described in several references, such as N. D. Cook, et al., Pharmaceutical Manufacturing International, pages 49-53 (1992); K. Takeuchi, Laboratory Practice, September issue (1992); U.S. Pat. No. 4,568,649 (1986); which are incorporated by reference herein. Reactions are performed in 96-well plates. The assay is conducted in 100 μl volume with 5.4 mM HEPES (pH 7.5), 11.7 mM KCl, 4.5 mM MgCl2, 0.36 mg/ml BSA, and 90 nM ^3H-dTTP. Assays are run with and without CHAPS, (3-[(3-Cholamidopropyl)-dimethylammonio]-1-propane-sulfonate) at a final concentration of 2 mM. HCMV is diluted in enzyme dilution buffer containing 50% glycerol, 250 mM NaCl, 10 mM HEPES (pH 7.5), 100 pg/ml BSA, and 0.01% sodium azide. The HCMV polymerase, which is expressed in recombinant baculovirus-infected SF-9 cells and purified according to literature procedures, is added at 10% (or 10 μl) of the final reaction volume, i.e., 100 μl. Compounds are diluted in 50% DMSO and 10 μl are added to each well. Control wells contain an equivalent concentration of DMSO. Unless noted otherwise, reactions are initiated via the addition of 6 nM biotinylated poly(dA)-oligo(dT) template/primer to reaction mixtures containing the enzyme, substrate, and compounds of interest. Plates are incubated in a 25° C. of 37° C. H2O bath and terminated via the addition of 40 μl/reaction of 0.5 M EDTA (pH 8) per well. Reactions are terminated within the time-frame during which substrate incorporation is linear and varied depending upon the enzyme and conditions used, i.e., 30 min. for HCMV polymerase. Ten μl of streptavidin-SPA beads (20 mg/ml in PBS/10% glycerol) are added following termination of the reaction. Plates are incubated 10 min. at 37° C., then equilibrated to room temperature, and counted on a Packard Topcount. Linear regressions are performed and IC50's are calculated using computer software. Results of the testing of compounds of the present invention in this assay are shown in Tables 1, 2, 5, 9, 10, 11, 13 (except for the last compound which was tested under modified conditions) and 14 below.
# T1 sequence (P08546 whole entry): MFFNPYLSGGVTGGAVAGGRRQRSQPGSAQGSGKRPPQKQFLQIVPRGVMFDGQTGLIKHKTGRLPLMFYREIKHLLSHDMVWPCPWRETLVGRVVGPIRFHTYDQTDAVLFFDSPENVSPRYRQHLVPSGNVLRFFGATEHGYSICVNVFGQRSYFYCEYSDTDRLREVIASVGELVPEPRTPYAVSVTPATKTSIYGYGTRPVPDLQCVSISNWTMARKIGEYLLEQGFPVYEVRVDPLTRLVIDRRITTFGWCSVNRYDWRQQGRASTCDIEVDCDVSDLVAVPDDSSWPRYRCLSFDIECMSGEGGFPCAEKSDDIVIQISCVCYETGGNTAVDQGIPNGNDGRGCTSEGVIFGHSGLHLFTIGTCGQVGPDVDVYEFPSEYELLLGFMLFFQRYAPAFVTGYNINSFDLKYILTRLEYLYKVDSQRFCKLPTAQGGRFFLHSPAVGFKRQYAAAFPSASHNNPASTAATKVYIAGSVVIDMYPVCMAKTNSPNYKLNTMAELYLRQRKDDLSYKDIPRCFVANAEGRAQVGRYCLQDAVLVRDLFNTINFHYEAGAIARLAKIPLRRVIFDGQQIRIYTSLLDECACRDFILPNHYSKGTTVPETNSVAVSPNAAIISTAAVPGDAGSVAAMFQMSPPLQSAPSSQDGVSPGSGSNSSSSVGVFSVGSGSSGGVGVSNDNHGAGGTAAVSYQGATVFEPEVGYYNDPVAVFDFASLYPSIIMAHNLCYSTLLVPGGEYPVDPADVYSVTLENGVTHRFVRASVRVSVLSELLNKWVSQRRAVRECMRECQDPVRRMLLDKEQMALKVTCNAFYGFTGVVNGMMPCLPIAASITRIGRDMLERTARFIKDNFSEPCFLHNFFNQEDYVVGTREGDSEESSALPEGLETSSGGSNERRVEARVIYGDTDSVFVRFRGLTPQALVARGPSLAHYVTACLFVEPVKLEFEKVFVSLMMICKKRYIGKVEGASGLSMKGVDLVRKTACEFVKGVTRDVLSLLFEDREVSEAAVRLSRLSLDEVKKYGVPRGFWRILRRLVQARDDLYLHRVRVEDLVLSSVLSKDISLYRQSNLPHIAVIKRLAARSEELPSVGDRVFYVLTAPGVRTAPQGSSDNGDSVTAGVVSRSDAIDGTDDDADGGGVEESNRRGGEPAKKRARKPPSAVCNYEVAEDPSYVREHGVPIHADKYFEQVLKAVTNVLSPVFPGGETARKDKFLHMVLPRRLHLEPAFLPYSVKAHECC
row,SMILES,% Inhib
1,"Cc1ccc2c(Cl)cc(S(=O)(=O)NCc3cccc4ccccc34)c(O)c2n1 [Example 31, 5-Chloro-8-hydroxy-2-methyl-N-(1-naphthalenylmethyl)-7-quinolinesulfonamide]",97.3%

# Same assay, conditions: Conc 1.00e−005 M; Table 2
row,SMILES,% Inhib
1,"Cc1ccc2c(Cl)cc(S(=O)(=O)NCc3cccc4ccccc34)c(O)c2n1 [Example 31, 5-Chloro-8-hydroxy-2-methyl-N-(1-naphthalenylmethyl)-7-quinolinesulfonamide]",88.2%

# Same assay, conditions: Conc 1.25e−006 M; Table 2
row,SMILES,% Inhib
1,"Cc1ccc2c(Cl)cc(S(=O)(=O)NCc3cccc4ccccc34)c(O)c2n1 [Example 31, 5-Chloro-8-hydroxy-2-methyl-N-(1-naphthalenylmethyl)-7-quinolinesulfonamide]",22.7%

# Same assay, conditions: Conc 1.30e−005 M; Table 2
row,SMILES,% Inhib
1,"Cc1ccc2c(Cl)cc(S(=O)(=O)NCc3cccc4ccccc34)c(O)c2n1 [Example 31, 5-Chloro-8-hydroxy-2-methyl-N-(1-naphthalenylmethyl)-7-quinolinesulfonamide]",97.3%

# Same assay, conditions: Conc 2.50e−005 M; Table 2
row,SMILES,% Inhib
1,"Cc1ccc2c(Cl)cc(S(=O)(=O)NCc3cccc4ccccc34)c(O)c2n1 [Example 31, 5-Chloro-8-hydroxy-2-methyl-N-(1-naphthalenylmethyl)-7-quinolinesulfonamide]",97.8%

# Same assay, conditions: Conc 2.50e−006 M; Table 2
row,SMILES,% Inhib
1,"Cc1ccc2c(Cl)cc(S(=O)(=O)NCc3cccc4ccccc34)c(O)c2n1 [Example 31, 5-Chloro-8-hydroxy-2-methyl-N-(1-naphthalenylmethyl)-7-quinolinesulfonamide]",38.5%

# Same assay, conditions: Conc 3.13e−006 M; Table 2
row,SMILES,% Inhib
1,"Cc1ccc2c(Cl)cc(S(=O)(=O)NCc3cccc4ccccc34)c(O)c2n1 [Example 31, 5-Chloro-8-hydroxy-2-methyl-N-(1-naphthalenylmethyl)-7-quinolinesulfonamide]",82.9%

# Same assay, conditions: Conc 3.13e−007 M; Table 2
row,SMILES,% Inhib
1,"Cc1ccc2c(Cl)cc(S(=O)(=O)NCc3cccc4ccccc34)c(O)c2n1 [Example 31, 5-Chloro-8-hydroxy-2-methyl-N-(1-naphthalenylmethyl)-7-quinolinesulfonamide]",−7.9%

# Same assay, conditions: Conc 5.00e−005 M; Table 2
row,SMILES,% Inhib
1,"Cc1ccc2c(Cl)cc(S(=O)(=O)NCc3cccc4ccccc34)c(O)c2n1 [Example 31, 5-Chloro-8-hydroxy-2-methyl-N-(1-naphthalenylmethyl)-7-quinolinesulfonamide]",97.8%

# Same assay, conditions: Conc 5.00e−006 M; Table 2
row,SMILES,% Inhib
1,"Cc1ccc2c(Cl)cc(S(=O)(=O)NCc3cccc4ccccc34)c(O)c2n1 [Example 31, 5-Chloro-8-hydroxy-2-methyl-N-(1-naphthalenylmethyl)-7-quinolinesulfonamide]",55%

# Same assay, conditions: Conc 6.25e−006 M; Table 2
row,SMILES,% Inhib
1,"Cc1ccc2c(Cl)cc(S(=O)(=O)NCc3cccc4ccccc34)c(O)c2n1 [Example 31, 5-Chloro-8-hydroxy-2-methyl-N-(1-naphthalenylmethyl)-7-quinolinesulfonamide]",95%

# Same assay, conditions: Conc 6.25e−007 M; Table 2
row,SMILES,% Inhib
1,"Cc1ccc2c(Cl)cc(S(=O)(=O)NCc3cccc4ccccc34)c(O)c2n1 [Example 31, 5-Chloro-8-hydroxy-2-methyl-N-(1-naphthalenylmethyl)-7-quinolinesulfonamide]",20%

# Same assay, conditions: Table 5; pol type CMV; read-out: IC50
row,SMILES,IC50
1,"CCCCCCCNC(=O)c1ccc2ccc(/C=C/c3ccccc3)nc2c1O [Example 49, N-Heptyl-8-hydroxy-2-(2-phenylethenyl)-7-quinolinecarboxamide]",< 3.1 µM and 0.6 µM

# Same assay, conditions: Table 9; read-out: CMV pol Assay- IC50
row,SMILES,IC50
1,CCCCCCCCNC(=O)c1ccc2cccnc2c1O,5.6 µM
2,CC1CCCC(NC(=O)c2ccc3cccnc3c2O)C1C (stereo not drawn),8.4 µM
3,O=C(NCc1ccccc1Cl)c1ccc2cccnc2c1O,19.7 µM
4,O=C(N[C@@H]1CC2CCC1C2)c1ccc2cccnc2c1O (stereo partly drawn),19.2 µM
5,C[C@H](NC(=O)c1ccc2cccnc2c1O)c1cccc2ccccc12,3 µM
6,O=C(NCc1ccccc1C(F)(F)F)c1ccc2cccnc2c1O,15.7 µM
7,O=C(NCCSc1cc(C(F)(F)F)nc2ccccc12)c1ccc2cccnc2c1O,12.6 µM
8,O=C(NCc1cccc(C(F)(F)F)c1)c1ccc2cccnc2c1O,8.5 µM
9,C[C@@H](NC(=O)c1ccc2cccnc2c1O)c1ccc(Br)cc1,4.6 µM
10,O=C(NCc1c(Cl)cccc1Oc1ccccc1)c1ccc2cccnc2c1O,3.1 µM
11,CCCCCCCCCCNC(=O)c1ccc2cccnc2c1O,7.1 µM
12,O=C(NCCc1ccc(Cl)cc1Cl)c1ccc2cccnc2c1O,9 µM
13,CC1(C)C2CCC(CNC(=O)c3ccc4cccnc4c3O)C1C2 (stereo not drawn),1.5 µM
14,COC(=O)[C@H](Cc1ccc([N+](=O)[O-])cc1)NC(=O)c1ccc2cccnc2c1O,10.8 µM
15,O=C(NCCc1ccc(Cl)cc1)c1ccc2cccnc2c1O,6.7 µM
16,O=C(NC1CCc2ccccc21)c1ccc2cccnc2c1O (stereo not drawn),13.2 µM
17,COC(=O)C(Cc1ccc(O)cc1)NC(=O)c1ccc2cccnc2c1O (stereo not drawn),12.1 µM
18,O=C(NC1C2CC3CC(C2)CC1C3)c1ccc2cccnc2c1O (stereo not drawn),24.3 µM
19,O=C(NC1CCCCCCC1)c1ccc2cccnc2c1O,7.6 µM
20,O=C(NCCc1ccc(Br)cc1)c1ccc2cccnc2c1O,5 µM
21,O=C(NCc1ccc(F)c(Cl)c1)c1ccc2cccnc2c1O,17.5 µM
22,O=C(NCc1ccc(Cl)cc1)c1ccc2cccnc2c1O [drawing 169],8.1 µM
23,O=C(NCCc1ccc(Oc2ccccc2)cc1)c1ccc2cccnc2c1O,4.5 µM
24,O=C(NCCc1c[nH]c2ccccc12)c1ccc2cccnc2c1O,11.1 µM
25,Cc1cccc(CNC(=O)c2ccc3cccnc3c2O)c1,22.6 µM
26,O=C(NCCc1cccc(Cl)c1)c1ccc2cccnc2c1O,6.9 µM
27,O=C(N[C@H](c1ccccc1)[C@@H](O)c1ccccc1)c1ccc2cccnc2c1O,2.9 µM and 6.4 µM
28,CC1CCCCC1NC(=O)c1ccc2cccnc2c1O (stereo not drawn),< 3.1 µM and > 10 µM
29,O=C(NCc1cc(F)ccc1F)c1ccc2cccnc2c1O,22.3 µM
30,O=C(NCC1CCCCC1)c1ccc2cccnc2c1O,24.2 µM

# Same assay, conditions: Table 10; CMV pol Assay; read-out: IC50
row,SMILES,IC50
1,O=C(Nc1cc(C(F)(F)F)ccc1Cl)c1ccc2cccnc2c1O [drawing 221],14 µM
2,O=C(Nc1ccc([N+](=O)[O-])cc1Cl)c1ccc2cccnc2c1O,3.3 µM
3,O=C(Nc1ccccc1-n1cccc1)c1ccc2cccnc2c1O,27.9 µM
4,O=C(Nc1cccc(C(F)(F)F)c1)c1ccc2cccnc2c1O,18.4 µM
5,N#Cc1ccc(NC(=O)c2ccc3cccnc3c2O)cc1 [drawing 210],> 100 µM
6,COc1ccc(NC(=O)c2ccc3cccnc3c2O)c([N+](=O)[O-])c1,22.4 µM
7,O=C(Nc1ccc2[nH]ccc2c1)c1ccc2cccnc2c1O,13.6 µM
8,O=C(Nc1ccc(Cl)c(Cl)c1)c1ccc2cccnc2c1O,32.7 µM
9,O=C(Nc1cc(Br)ccc1Br)c1ccc2cccnc2c1O,10.1 µM
10,O=C(Nc1ccc([N+](=O)[O-])cc1)c1ccc2cccnc2c1O,48.4 µM
11,Cc1ccc(F)cc1NC(=O)c1ccc2cccnc2c1O [drawing 282],6.6 µM
12,O=C(Nc1cc(F)c(F)cc1F)c1ccc2cccnc2c1O,27.4 µM
13,O=C(Nc1ccccc1-c1ccccc1)c1ccc2cccnc2c1O,4.3 µM
14,O=C(Nc1ccc(F)cc1F)c1ccc2cccnc2c1O,26.8 µM
15,N#Cc1ccccc1NC(=O)c1ccc2cccnc2c1O,> 50 µM
16,Cc1ccc(NC(=O)c2ccc3cccnc3c2O)c(C)c1 [drawing 279],8.1 µM
17,O=C(Nc1cc([N+](=O)[O-])cc([N+](=O)[O-])c1)c1ccc2cccnc2c1O,7.1 µM
18,O=C(Nc1ccc2ccccc2c1)c1ccc2cccnc2c1O,15.5 µM
19,Cc1cc(F)ccc1NC(=O)c1ccc2cccnc2c1O,10.2 µM

# Same assay, conditions: Table 11; read-out: CMV pol Assay IC50
row,SMILES,IC50
1,CC(C)(C)OC(=O)[C@H](Cc1c[nH]c2ccccc12)Nc1nnc(NC(=O)c2ccc3cccnc3c2O)s1,< 3.1 µM
2,COC(=O)[C@H](Cc1ccccc1)Nc1nnc(NC(=O)c2ccc3cccnc3c2O)s1,15.4 µM
3,CSCC[C@H](Nc1nnc(NC(=O)c2ccc3cccnc3c2O)s1)C(=O)OC(C)(C)C,26.6 µM
4,O=C(Nc1nnc(Br)s1)c1ccc2cccnc2c1O [drawing 304],93.2 µM
5,CC(C)(C)OC(=O)NCCNc1nnc(NC(=O)c2ccc3cccnc3c2O)s1,14.3 µM
6,CC(C)(C)OC(=O)[C@@H]1CCCN1c1nnc(NC(=O)c2ccc3cccnc3c2O)s1,13.9 µM
7,O=C(Nc1nnc(NCc2ccc3c(c2)OCO3)s1)c1ccc2cccnc2c1O,7.1 µM
8,CC(C)(C)OC(=O)C[C@H](Nc1nnc(NC(=O)c2ccc3cccnc3c2O)s1)C(=O)OC(C)(C)C,24.2 µM

# Same assay, conditions: Table 14; 25 uM
row,SMILES,inhibition at 25 µM
1,O=C(N[C@H]1CC[C@H](O)CC1)c1ccc2cccnc2c1O,21%

# Same assay, conditions: Table 14; read-out: IC50
row,SMILES,IC50
1,CCCCCCNC(=O)c1ccc2cccnc2c1O,27 µM
2,O=C(c1ccc2cccnc2c1O)N1CCN(c2ccc(Cl)c(Cl)c2)CC1,14 µM
3,O=C(N[C@H]1CC[C@H](OC(=O)c2ccc3cccnc3c2O)CC1)c1ccc2cccnc2c1O,4 µM

# Same assay, conditions: pol type CMV; Table 2; read-out: IC50
row,SMILES,IC50
1,"Cc1ccc2c(Cl)cc(S(=O)(=O)NCc3cccc4ccccc34)c(O)c2n1 [Example 31, 5-Chloro-8-hydroxy-2-methyl-N-(1-naphthalenylmethyl)-7-quinolinesulfonamide]",< 3.1 µM and 3.7 µM
